Measurements: patent publication US7186695B2 (priority 2001, dated 2007)

What was measured:
[1] = test system: adherent BAE cells; assay: Membrane permeability, tritiated GSAO in cytosol; type: in vitro ADME, bovine; conditions: 50 μM GSAO, 1 hour
Description: Human T cells (A3.01) or adherent BAE cells were incubated with complete medium containing 50 μM GSAO and ˜100,000 counts per minute of tritiated GSAO for 1 or 72 hours. Tritiated GSAO was prepared exactly as described for GSAO except that glycine-2-^3H-glutathione (NEN, Boston, Mass.) was used in place of cold glutathione. The cells were washed and lysed by two cycles of freezing and thawing. The cytosolic constituents were collected by differential centrifugation (Ausbel et al., 2000) and the tritiated GSAO was measured. Only 0.5% of the total tritiated GSAO was found in the T cell cytosol and 0.04% in the BAE cytosol after 1 hour. Moreover, only 4.5% of the GSAO penetrated the T cell membrane after 72 hours of culture.

[2] = Binding of GSAO to dithiols, loss of thiols in DTNB assay
Description: FIG. 11. Titration of DMP or cysteine with GSAO. DMP (15 μM corresponding to 30 μM thiols) is or cysteine (28 μM) was incubated with GSAO (0–50 μM) for 10 minutes. DTNB (950 μM) was then added and the reactions incubated for a further 10 minutes. The concentration of thiol in the reactions was determined from the absorbance of the TNB dianion at 412 nm.
FIG. 12. Interaction of GSAO with synthetic. Deptide and protein dithiols. DMP (A) (15 μM), 6,8-thioctic acid (B) ([…]), dithiothreitol (C) (8.5 μM), TrpCysGlyProCysLys (D) (4.6 μM), TrpCysGlyHisCysLys (E) (5.5 μM) or thioredoxin (F) (4.1 μM corresponding to 20.6 μM thiols) was incubated with GSAO (0–56 μM) for 10 minutes. […] The concentration of thiol in the reactions was determined from the absorbance of the TNB dianion at 412 nm. […]
(§1) A stock solution of DMP (5 μL, 50 μmol) was dissolved in DMSO (995 μL), giving a concentration of 50 mM DMP. […] The activity of the arsenical could then be determined by the titration of varying amounts of arsenical against the DMP working solution (10 μL) in a 96-well microbitre plate, with the total volume made up to 195 μL by addition of buffer. […] The absorbance at 412 nm due to the formation of the TNB dianion was measured using a Molecular Devices Thermomax Plus (Palo Alto, Calif.) microplate reader. […]
(§2) Binding of GSAO to dithiols was measured from loss of thiols using the DTNB assay described above. […]

[3] = Interaction of GSAO with synthetic, peptide and protein dithiols (summary); type: binding; conditions: units printed within the range; read-out: dissociation constants, range over all dithiols
Description: (§3) FIG. 12. Interaction of GSAO with synthetic. Deptide and protein dithiols. DMP (A) (15 μM), 6,8-thioctic acid (B) ([…]), dithiothreitol (C) (8.5 μM), TrpCysGlyProCysLys (D) (4.6 μM), TrpCysGlyHisCysLys (E) (5.5 μM) or thioredoxin (F) (4.1 μM corresponding to 20.6 μM thiols) was incubated with GSAO (0–56 μM) for 10 minutes. DTNB (950 μM) was then added and the reactions incubated for a further 10 minutes. The concentration of thiol in the reactions was determined from the absorbance of the TNB dianion at 412 nm. The solid lines represent the best non-linear least squares fit of the data to Equation 1 (A to E) or Equation 2 (F) and have been drawn using the parameter estimates in Table 1. The dotted line in part A represents a simulated titration assuming an infinite affinity of GSAO for the dithiol. GSAO bound to both synthetic, peptide and protein dithiols with dissociation constants in the range 130 nM to 1.4 μM.
(§4) Binding of GSAO to dithiols was measured from loss of thiols using the DTNB assay described above. The dissociation constant, Kd, for GSAO binding to dithiols was determined by incubating increasing concentrations of GSAO, I, with a fixed dithiol concentration, [S]T, and measuring the remaining dithiol using DTNB. Note that the concentration of dithiol equals half the TNB concentration. […]

[4] = target: T1, TrpCysGlyProCysLys (thioredoxin active site hexapeptide) (Homo sapiens, UniProt P10599); assay: Binding of GSAO to dithiols, loss of thiols in DTNB assay
T1 construct: purchased Auspep, Parkville, Australia; host or cells: synthetic peptide
Description: as §3
(§5) A stock solution of DMP (5 μL, 50 μmol) was dissolved in DMSO (995 μL), giving a concentration of 50 mM DMP. A second dilution of the 50 mM DMP stock solution (10 μL) in pH 7.0 buffer (0.1 M HEPES, 0.3 M NaCl, 1 mM EDTA) (990 μL) gave a working solution of 500 ? M DMP. The activity of the arsenical could then be determined by the titration of varying amounts of arsenical against the DMP working solution (10 μL) in a 96-well microbitre plate, with the total volume made up to 195 μL by addition of buffer. After a 10 minute incubation at room temperature, during which time the solutions were agitated on a plate shaker, 5 μL of a 37.9 mM stock solution of DTNB (15 mg) in DMSO (1 mL) was added, and the plate incubated with shaking for another 10 minutes. The absorbance at 412 nm due to the formation of the TNB dianion was measured using a Molecular Devices Thermomax Plus (Palo Alto, Calif.) microplate reader. The extinction coefficient for the TNB dianion at pH 7.0 is 14,150 M^−1cm^−1 at 412 nm (Riddles et al., 1983).
(§6) Recombinant human thioredoxin produced in E. coli was from American Diagnostica, Greenwich, Conn. The hexapeptides, TrpCysGlyProCysLys (SEQ ID NO: 1) and TrpCysGiyHisCysLys (SEQ ID NO: 2), were from Auspep, Parkville, Australia.
as §4, with “concentration. The concentration of dithiol.GSAO complex, SI, as a function of the total GSAO concentration, [I]T, is described by Equation 1 (Hogg and Jackson, 1990), [SI]=0.5.{([S]T+x.[I]T+Kd)−(([S]T+x.[I]T+Kd)^2−4.[S]T.x.[I]T)^0.5} (1)” for “concentration.”

[5] = target: T2, TrpCysGlyHisCysLys (PDI active site hexapeptide) (Homo sapiens, UniProt P07237); assay: as above
T2 construct: purchased Auspep, Parkville, Australia; host or cells: synthetic peptide
Description: as §3, §5, §6
as §4, with “concentration. The concentration of dithiol.GSAO complex, SI, as a function of the total GSAO concentration, [I]T, is described by Equation 1 (Hogg and Jackson, 1990), [SI]=0.5.{([S]T+x.[I]T+Kd)−(([S]T+x.[I]T+Kd)^2−4.[S]T.x.[I]T)^0.5} (1)” for “concentration.”

[6] = as above; conditions: errors are 1 SD, read-out: Dissociation Constant
Description: as §3, with “The dotted line in part A represents a simulated titration assuming an infinite affinity of GSAO for the dithiol. GSAO bound to both synthetic, peptide and protein dithiols with dissociation constants in the range 130 nM to 1.4 μM.” left out
as §1, §2

[7] = Dissociation Constant, ring size 15, errors are 1 SD
[8] = dissociation constant, approximate value

For `NC(CCC(=O)NC(CSCC(=O)Nc1ccc([As]=O)cc1)C(=O)NCC(=O)O)C(=O)O` (stereo not shown) [GSAO, 4-(N-(S-glutathionylacetyl)amino)-phenylarsenoxide], the “total tritiated GSAO found in the cytosol” value [1] was 0.04%, the “interaction of GSAO with DMP in DTNB titration” value ([2]; DMP 15 μM, GSAO 0–50 μM, 10 minutes) was “bound to DMP and prevented interaction of the dithiol with DTNB” and the Kd ([2]; ring size 5, errors are 1 SD, read-out: Dissociation Constant) was 130 nM. For the same compound, the Kd [3] was 130 to 1400 nM, the Kd [4, 7] was 1420 nM and the Kd [4, 8] was about 1000 nM. For the same compound, the Kd [5, 7] was 870 ± 270 nM, the Kd [5, 8] was about 1000 nM and the Kd ([6]; ring size 6) was 200 ± 50 nM. It also gave a Kd ([6]; ring size 7) of 420 nM.
